For 22 compounds, IC50 results are on record in patent US7973181B2, “Hydroxamic acid derivatives as inhibitors of HDAC enzymatic activity” (Chroma Therapeutics Ltd., priority 2005, dated 2011).

The target in assay [1] is histone deacetylase activity (HeLa nuclear extract). Put plainly: HDAC fluorescent activity assay (Biomol Fluor de Lys), HeLa nuclear extract. It is filed as biochemical. As to conditions: Fluor de Lys substrate. As to the method: The ability of compounds to inhibit histone deacetylase activities was measured using the commercially available HDAC fluorescent activity assay from Biomol. In brief, the Fluor de Lys™ substrate, a lysine with an epsilon-amino acetylation, is incubated with the source of histone deacetylase activity (HeLa nuclear extract) in the presence or absence of inhibitor.
Deacetylation of the substrate sensitises the substrate to Fluor de Lys™ developer, which generates a fluorophore. Thus, incubation of the substrate with a source of HDAC activity results in an increase in signal that is diminished in the presence of an HDAC inhibitor.
Data are expressed as a percentage of the control, measured in the absence of inhibitor, with background signal being subtracted from all samples, as follows: — % activity=((S^i−B)/(S^o−B))×100 where S^i is the signal in the presence of substrate, enzyme and inhibitor, S^o is the signal in the presence of substrate, enzyme and the vehicle in which the inhibitor is dissolved, and B is the background signal measured in the absence of enzyme.
(§1) IC50 values were determined by non-linear regression analysis, after fitting the results of eight data points to the equation for sigmoidal dose response with variable slope (% activity against log concentration of compound), using Graphpad Prism software.
Histone deacetylase activity from crude nuclear extract derived from HeLa cells was used for screening. The preparation, purchased from 4C (Seneffe, Belgium), was prepared from HeLa cells harvested whilst in exponential growth phase. The nuclear extract is prepared according to Dignam JD1983 Nucl. Acid. Res. 11, 1475-1489, snap frozen in liquid nitrogen and stored at −80° C. The final buffer composition was 20 mM Hepes, 100 mM KCl, 0.2 mM EDTA, 0.5 mM DTT, 0.2 mM PMSF and 20% (v/v) glycerol.
Results of testing the compounds of the examples in this assay are given in the second column of Table 1 below.

In a further assay the test system is Hela. Put plainly: Cell inhibition assay (SRB cell viability), Hela. As to conditions: Homo sapiens, HeLa, 72 h, Hela cells. It counts as cell-based. As to the method: (§2) The corresponding cancer cell lines (Hela, U937 and HUT) growing in log phase were harvested and seeded at 1000 cells/well (200 ul final volume) into 96-well tissue culture plates. Following 24 h of cell growth cells were treated with compounds (final concentration of 20 uM). Plates were then re-incubated for a further 72 h before a sulphorhodamine B (SRB) cell viability assay was conducted according to Skehan 1990 J Natl Canc Inst 82, 1107-1112.
(§3) Data were expressed as a percentage inhibition of the control, measured in the absence of inhibitor, as follows: — % inhibition=100−((S^i/S^o)×100) where S^i is the signal in the presence of inhibitor and S^o is the signal in the presence of DMSO.
as §1
(§4) Results of testing the compounds of the examples in this assay are given in the third- fifth columns of Table 1.

The test system of the next assay is U937. As to the kind of experiment: Cell inhibition assay (SRB cell viability), U937. It is filed as cell-based. As to conditions: Homo sapiens, U-937, 72 h, U937 cells. As to the method: as §2, §3, §1, §4
Another assay has as its system HUT. Put plainly: Cell inhibition assay (SRB cell viability), HUT. It counts as cell-based. As to conditions: 72 h, HUT cells. As to the method: as §2, §3, §1, §4

Where only a bound is given, the exact number is not on record here.

Turning to `CC(=O)N[C@@H](Cc1ccc(NC(=O)CCCCCCC(=O)NO)cc1)C(=O)OC1CCCC1` [Example 1, (S)-2-Acetylamino-3-[4-(7-hydroxycarbamoyl-heptanoylamino)-phenyl]-propionic acid cyclopentyl ester], the IC50 is 101 to 1000 nM in assay [1], greater than 3300 nM with Hela, 330 to 3300 nM in the assay on U937 and 330 to 3300 nM with HUT.

With `CC(=O)N[C@@H](Cc1ccc(NC(=O)CCCCCCC(=O)NO)cc1)C(=O)O` [Example 2, (S)-2-Acetylamino-3-[4-(7-hydroxycarbamoyl-heptanoylamino)-phenyl]-propionic acid], the IC50 is 101 to 1000 nM in assay [1], greater than 3300 nM in the assay on Hela, greater than 3300 nM in the assay on U937 and greater than 3300 nM with HUT.

On to `CC(=O)N[C@H](Cc1ccc(NC(=O)CCCCCCC(=O)NO)cc1)C(=O)OC1CCCC1` [Example 3, (R)-2-Acetylamino-3-[4-(7-hydroxycarbamoyl-heptanoylamino)-phenyl]-propionic acid cyclopentyl ester], for which the IC50 in assay [1] is 101 to 1000 nM; with Hela it was greater than 3300 nM; in the assay with U937, greater than 3300 nM; with HUT, 330 to 3300 nM.

As to `CC(=O)N[C@H](Cc1ccc(NC(=O)CCCCCCC(=O)NO)cc1)C(=O)O` [Example 4, (R)-2-Acetylamino-3-[4(7-hydroxycarbamoyl-heptanoylamino)-phenyl]-propionic acid], the IC50 is greater than 1000 nM in assay [1], greater than 3300 nM in the assay on Hela, greater than 3300 nM with U937 and greater than 3300 nM in the assay with HUT.

With `N[C@@H](CCOc1cccc(NC(=O)CCCCCCC(=O)NO)c1)C(=O)OC1CCCC1` [Example 5, (S)-2-Amino-4-[3-(7-hydroxycarbamoyl-heptanoylamino)-phenoxy]-butyric acid cyclopentyl ester], the IC50 is less than 100 nM in assay [1], 330 to 3300 nM in the assay on Hela, 330 to 3300 nM with U937 and 330 to 3300 nM in the assay on HUT.

In the case of `N[C@@H](CCOc1cccc(NC(=O)CCCCCCC(=O)NO)c1)C(=O)O` [Example 6, (S)-2-Amino-4-[3-(7-hydroxycarbamoyl-heptanoylamino)-phenoxy]-butyric acid], the IC50 is 101 to 1000 nM in assay [1], greater than 3300 nM with Hela, 330 to 3300 nM in the assay on U937 and 330 to 3300 nM in the assay with HUT.

On to `N[C@@H](CCOc1ccc(NC(=O)CCCCCCC(=O)NO)cc1)C(=O)OC1CCCC1` [Example 7, (S)-2-Amino-4-[4-(7-hydroxycarbamoyl-heptanoylamino)-phenoxy]-butyric acid cyclopentyl ester], for which the IC50 was in the range of 101 to 1000 nM in assay [1], 330 to 3300 nM in the assay on Hela, 330 to 3300 nM with U937 and 330 to 3300 nM with HUT.

As to `N[C@@H](CCOc1ccc(NC(=O)CCCCCCC(=O)NO)cc1)C(=O)O` [Example 8, (S)-2-Amino-4-[4-(7-hydroxycarbamoyl-heptanoylamino)-phenoxy]-butyric Acid], the IC50 in assay [1] was 101 to 1000 nM.

Take `N[C@@H](CCOc1ccc(CNCc2ccc3cc(C(=O)NO)sc3c2)cc1)C(=O)OC1CCCC1` [Example 9, (S)-2-Amino-4-(4-{[(2-hydroxycarbamoyl-benzo[b]thiophen-6-ylmethyl)-amino]-methyl}-phenoxy)-butyric acid cyclopentyl ester]: the IC50 in assay [1] is less than 100 nM; in the assay on Hela, less than 330 nM; in the assay with U937, less than 330 nM; with HUT, less than 330 nM.

In turn, `N[C@@H](CCOc1ccc(CNCc2ccc3cc(C(=O)NO)sc3c2)cc1)C(=O)O` [Example 10, (S)-2-Amino-4-(4-{[(2-hydroxycarbamoyl-benzo[b]thiophen-6-ylmethyl)-amino]-methyl}-phenoxy)-butyric acid] yielded an IC50 in assay [1] of less than 100 nM.

Consider `N[C@@H](CCCOc1ccc(CNCc2ccc3cc(C(=O)NO)sc3c2)cc1)C(=O)OC1CCCC1` [Example 11, (S)-2-Amino-5-(4-{[(2-hydroxycarbamoyl-benzo[b]thiophen-6-ylmethyl)-amino]-methyl}-phenoxy)-pentanoic acid cyclopentyl ester], for which the IC50 was less than 100 nM in assay [1], less than 330 nM with Hela, less than 330 nM in the assay with U937 and less than 330 nM in the assay with HUT.

In turn, `N[C@@H](CCCOc1ccc(CNCc2ccc3cc(C(=O)NO)sc3c2)cc1)C(=O)O` [Example 12, (S)-2-Amino-5-(4-{[(2-hydroxycarbamoyl-benzo[b]thiophen-6-ylmethyl)-amino]-methyl}-phenoxy)-pentanoic acid] had an IC50 in assay [1] of less than 100 nM.

Consider `N[C@H](CCOc1ccc(CNCc2ccc3cc(C(=O)NO)sc3c2)cc1)C(=O)OC1CCCC1` [Example 13, (R)-2-Amino-4-(4-{[(2-hydroxycarbamoyl-benzo[b]thiophen-6-ylmethyl)-amino]-methyl}phenoxy)-butyric acid cyclopentyl ester], for which the IC50 in assay [1] was less than 100 nM; with Hela, less than 330 nM; with U937, less than 330 nM; with HUT it was less than 330 nM.

For `N[C@H](CCCOc1ccc(CNCc2ccc3cc(C(=O)NO)sc3c2)cc1)C(=O)OC1CCCC1` [Example 15, (R)-2-Amino-5-(4-{[(2-hydroxycarbamoyl-benzo[b]thiophen-6-ylmethyl)-amino]-methyl}-phenoxy)-pentanoic acid cyclopentyl ester], the IC50 is less than 100 nM in assay [1], 330 to 3300 nM in the assay on Hela, less than 330 nM in the assay on U937 and less than 330 nM with HUT.

As for `N[C@H](CCCOc1ccc(CNCc2ccc3cc(C(=O)NO)sc3c2)cc1)C(=O)O` [Example 16, (R)-2-Amino-5-(4-{[(2-hydroxycarbamoyl-benzo[b]thiophen-6-ylmethyl)-amino]-methyl}-phenoxy)-pentanoic acid], the IC50 in assay [1] is less than 100 nM.

Turning to `N[C@@H](CCCOc1ccc(CNCc2ccc3cc(C(=O)NO)sc3c2)cc1)C(=O)O` [Example 18, (S)-2-Amino-5-(4-{[(2-hydroxycarbamoyl-benzo[b]thiophen-6-ylmethyl)-amino]-methyl}-phenoxy)-pentanoic acid], the IC50 in assay [1] lay within 101 to 1000 nM.

As for `COc1cc(CNCc2ccc3cc(C(=O)NO)sc3c2)ccc1OCCC[C@H](N)C(=O)O` [Example 20, (S)-2-Amino-5-(4-{[(2-hydroxycarbamoyl-benzo[b]thiophen-6-ylmethyl)-amino]-methyl}-2-methoxyphenoxy)-pentanoic acid], the IC50 in assay [1] was less than 100 nM.

Regarding `O=C(NO)c1cc2ccc(CNCc3ccc(OCCC[C@H](NC4CCCCC4)C(=O)O)cc3)cc2s1` [Example 23, (S)-2-Cyclohexylamino-5-(4-{[(2-hydroxycarbamoyl-benzo[b]thiophen-6-ylmethyl)-amino]-methyl}-phenoxy)-pentanoic acid], the IC50 in assay [1] is less than 100 nM.

Consider `N[C@H](C(=O)O)c1ccc(Oc2ccc(CNCc3ccc4cc(C(=O)NO)sc4c3)cc2)cc1` [Example 25, (S)-Amino-[4-(4-{[(2-hydroxycarbamoyl-benzo[b]thiophen-6-ylmethyl)-amino]-methyl}-phenoxy)-phenyl]-acetic acid], for which the IC50 in assay [1] was less than 100 nM.

On to `N[C@@H](Cc1ccc(Oc2ccc(CNCc3ccc4cc(C(=O)NO)sc4c3)cc2)cc1)C(=O)O` [Example 27, (S)-2-Amino-3-[4-(4-{[(2-hydroxycarbamoyl-benzo[b]thiophen-6-ylmethyl)-amino]-methyl}-phenoxy)-phenyl]-propionic acid], for which, in assay [1], the IC50 was less than 100 nM.

As for `N[C@@H](CC1CCC(Oc2ccc(CNCc3ccc4cc(C(=O)NO)sc4c3)cc2)CC1)C(=O)O` (stereo partly drawn) [Example 29, 2-(S)-Amino-3-[4-(4-{[(2-hydroxycarbamoyl-benzo[b]thiophen-6-ylmethyl)-amino]-methyl}-phenoxy)-cyclohexyl]-propionic acid], the IC50 in assay [1] is less than 100 nM.

In assay [1], `NC(C(=O)O)C1CCC(Oc2ccc(CNCc3ccc4cc(C(=O)NO)sc4c3)cc2)CC1` (stereo not shown) [Example 31, Amino-[4(4-{[(2-hydroxycarbamoyl-benzo[b]thiophen-6-ylmethyl)-amino]-methyl}-phenoxy)-cyclohexyl]-acetic acid] showed an IC50 of less than 100 nM.

As a reminder, the IC50 is the concentration needed to halve the response being measured.
